In patent publication US20240034729A9, “HETEROCYCLIC COMPOUND, INTERMEDIATE, PREPARATION METHOD THEREFOR AND APPLICATION THEREOF” (WUHAN LL SCIENCE AND TECHNOLOGY DEVELOPMENT CO., LTD., priority 2018, published 2024):
Read-outs that look alike come from different tables or passages of the source.

Target: hP2X3 (human purinergic P2X receptor subtype 3) (Homo sapiens (Human), UniProt P56373)
Assay: FLIPR calcium assay, hP2X3 expressed in HEK293 cells
Type: cell-based
Settings: read-out: P2X3 IC50
[1] = HEK293 cells expressing hP2X3, agonist BZ-ATP 2.5 μM, class symbols

Chain of hP2X3 (human purinergic P2X receptor subtype 3) (P56373 whole entry): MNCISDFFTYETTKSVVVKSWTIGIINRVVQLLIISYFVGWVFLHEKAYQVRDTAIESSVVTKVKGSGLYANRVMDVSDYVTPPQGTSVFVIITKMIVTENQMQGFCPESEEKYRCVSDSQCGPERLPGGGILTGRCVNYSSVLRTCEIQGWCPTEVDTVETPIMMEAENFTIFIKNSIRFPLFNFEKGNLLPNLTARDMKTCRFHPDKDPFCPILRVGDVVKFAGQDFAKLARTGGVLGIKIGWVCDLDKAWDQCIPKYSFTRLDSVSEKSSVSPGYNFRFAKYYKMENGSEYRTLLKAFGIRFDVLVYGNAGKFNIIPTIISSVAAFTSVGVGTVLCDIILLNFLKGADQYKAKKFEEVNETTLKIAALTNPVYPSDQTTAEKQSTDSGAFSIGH

IC50 [1] [nM] | Compound | IC50 [nM]
200 to 5000 | COC(=O)N1CCO[C@@H](Cc2c(-c3c(F)cc(-n4cnc(C5(C(=O)O)CC5)c4)cc3F)nc3cc(C)ccn23)C1 [Compound 113] | –
– | COC(=O)N1CCO[C@@H](Cc2c(-c3c(F)cc(Nc4ccco4)cc3F)nc3cc(C)ccn23)C1 [Compound 74] | 50 to 200
200 to 5000 | COC(=O)N1CCO[C@@H](Cc2c(-c3c(F)cc(C(C)=O)cc3F)nc3cc(C)ccn23)C1 [Compound 14, methyl (S)-2-((2-(4-acetyl-2,6-difluorophenyl)-7-methylimidazo[1,2-a]pyridin-3-yl)methyl)morpholine-4-carboxylate] | –
200 to 5000 | COC(=O)N1CCO[C@@H](Cc2c(-c3c(F)cc(-n4cnc(OC)c4)cc3F)nc3cc(C)ccn23)C1 [Compound 112] | –
– | COC(=O)N1CCO[C@@H](Cc2c(-c3c(F)cc(NC(C)=O)cc3F)nc3cc(F)ccn23)C1 [Compound 148] | < 10
200 to 5000 | CNC(=O)c1cc(F)c(-c2nc3n(c2C[C@H]2CN(C(=O)OC)CCO2)CCN(C)C3)c(F)c1 [Compound 62] | –
200 to 5000 | CNC(=O)c1cc(F)c(-c2nc3cc(C)ccn3c2CN2CCNC(=O)C2)c(F)c1 [Compound 31] | –
– | CCC(=O)N1CCO[C@@H](Cc2c(-c3c(F)cc(NC(C)=O)cc3F)nc3cc(Cl)ccn23)C1 [Compound 154] | < 10
– | COC(=O)N1CCO[C@@H](Cc2c(-c3c(F)cc(-n4ccc(C5(C(=O)O)CC5)c4)cc3F)nc3cc(C)ccn23)C1 [Compound 136] | 50 to 200
200 to 5000 | CNC(=O)c1coc(-c2nc3cc(C)ccn3c2C[C@H]2CN(C(=O)OC)CCO2)c1F [Compound 22] | –
– | COC(=O)N1CCO[C@@H](Cc2c(C3CCN(C(C)=O)CC3)nc3cc(C)ccn23)C1 [Compound 30, methyl (S)-2-((2-(1-acetylpiperidin-4-yl)-7-methylimidazo[1,2-a]pyridin-3-yl)methyl)morpholine-4-carboxylate] | 10 to 50
– | COC(=O)N1CCO[C@@H](Cc2c(-c3c(F)cc(NC(=O)C4CCC(C(=O)O)CC4)cc3F)nc3cc(C)ccn23)C1 (stereo partly drawn) [Compound 82] | 10 to 50
– | COC(=O)c1cc(F)c(-c2nc3cc(C)ccn3c2C[C@H]2CN(C(=O)OC)CCO2)c(F)c1 [Compound 49, methyl (S)-2-((2-(2,6-difluoro-4-carbomethoxyphenyl)-7-methylimidazo[1,2-a]pyridin-3-yl)-methyl)morpholine-4-carboxylate] | < 10
– | COC(=O)N1CCO[C@@H](Cc2c(-c3c(F)cc(-n4cnnc4)cc3F)nc3cc(C)ccn23)C1 [Compound 143, methyl (S)-2-((2-(2,6-difluoro-4-(4H-1,2,4-triazol-4-yl)phenyl)-7-methylimidazo[1,2-a]pyridin-3-yl)methyl)morpholine-4-carboxylate] | < 10
– | COC(=O)N1CCO[C@@H](Cc2c(-c3c(F)cc(-n4cnc(N)c4)cc3F)nc3cc(C)ccn23)C1 [Compound 111] | 10 to 50
– | COC(=O)N1CCO[C@@H](Cc2c(-c3c(F)cc(-n4ccnn4)cc3F)nc3cc(C)ccn23)C1 [Compound 141, methyl (S)-2-((2-(2,6-difluoro-4-(1H-1,2,3-triazol-1-yl)phenyl)-7-methylimidazo[1,2-a]pyridin-3-yl)methyl)morpholine-4-carboxylate] | 10 to 50
200 to 5000 | COC(=O)c1cn(-c2cc(F)c(-c3nc4cc(C)ccn4c3C[C@H]3CN(C(=O)OC)CCO3)c(F)c2)cn1 [Compound 108] | –
– | (S,E)-4-((3,5-difluoro-4-(3-((4-(methoxycarbonyl)-morpholin-2-yl)-methyl)-7-methylimidazo[1,2-a]pyri din-2-yl)-phenyl)-amino)-4-oxobutyl-2-enoic acid [Compound 27] | < 10
– | COC(=O)N1CCO[C@@H](Cc2c(-c3c(F)cc(-n4cc(OC)cn4)cc3F)nc3cc(C)ccn23)C1 [Compound 129, methyl (S)-2-((2-(2,6-difluoro-4-(4-methoxy-1H-pyrazol-1-yl)phenyl)-7-methylimidazo[1,2-a]pyridin-3-yl)methyl)morpholine-4-carboxylate] | 10 to 50
– | COC(=O)N1CCO[C@@H](Cc2c(-c3c(F)cc(C4(N)COC4)cc3F)nc3cc(C)ccn23)C1 [Compound 70] | 10 to 50
– | CNC(=O)c1cc(F)c(-c2oc3cc(C)ncc3c2C[C@H]2CN(C(=O)OC)CCO2)c(F)c1 [Compound 55, methyl (S)-2-((2-(2,6-difluoro-4-(methylcarbamoyl)phenyl)-6-methylfurano[3,2-c]pyridin-3-yl)methyl)morpholine-4-carboxylate] | < 10
– | COC(=O)N1CCC[C@@H](Cc2c(-c3c(F)cc(S(N)(=O)=O)cc3F)nc3cc(Cl)ccn23)C1 [Compound 188] | 9
– | CNC1(c2cc(F)c(-c3nc4cc(C)ccn4c3C[C@H]3CN(C(=O)OC)CCO3)c(F)c2)CC1 [Compound 67, methyl (S)-2-((2-(2,6-difluoro-4-(1-(methylamino)cyclopropyl)phenyl)-7-methylimidazo[1,2-a]pyridin-3-yl)methyl) morpholine-4-carboxylate] | 10 to 50
– | COC(=O)N1CCO[C@@H](Cc2c(-c3c(F)cc(-c4nc(C5(O)CC5)c[nH]4)cc3F)nc3cc(C)ccn23)C1 [Compound 116] | 10 to 50

IC50 [1] [nM] | Compound | IC50 [nM]
– | COC(=O)N1CCO[C@@H](Cc2c(-c3c(F)cc(Nc4ccc(Cl)o4)cc3F)nc3cc(C)ccn23)C1 [Compound 72] | 50 to 200
– | COC(=O)N1CCO[C@@H](Cc2c(-c3c(F)cc(NC(C)=O)cc3F)nc3cc(C(F)(F)F)ccn23)C1 [Compound 153, methyl (S)-2-((2-(4-acetamido-2,6-difluorophenyl)-7-(trifluoromethyl)imidazo[1,2-a]pyridin-3-yl)methyl)morpholine-4-carboxylate] | 50 to 200
– | COC(=O)N1CCO[C@@H](Cc2c(-c3c(F)cc(-n4ccc(C5(O)CC5)n4)cc3F)nc3cc(C)ccn23)C1 [Compound 131] | 10 to 50
– | COC(=O)N1CCO[C@@H](Cc2c(-c3c(F)cc(-c4ncco4)cc3F)nc3cc(CF)ccn23)C1 [Compound 123] | 50 to 200
200 to 5000 | CNC(=O)c1cc(F)c(-c2cc3cc(C)ccc3n2C[C@H]2CN(C(=O)OC)CCO2)c(F)c1 [Compound 40, methyl (S)-2-((2-(2,6-difluoro-4-(methylcarbamoyl)phenyl)-5-methyl-1H-indol-1-yl)methyl)morpholine-4-carboxylate] | –
– | COC(=O)N1CCO[C@@H](Cc2c(-c3c(F)cc(-c4nc(Cl)c[nH]4)cc3F)nc3cc(C)ccn23)C1 [Compound 34, methyl (S)-2-((2-(4-(4-chloro-1H-imidazol-2-yl)-2,6-difluorophenyl)-7-methylimidazo[1,2-a]pyridin-3-yl)methyl)morpholine-4-carboxylate] | < 10
– | COC(=O)N1CCC[C@@H](Cc2c(-c3c(F)cc(S(N)(=O)=O)cc3F)nc3cc(C)ccn23)C1 [Compound 187] | 50
– | COC(=O)N1CCO[C@@H](Cc2c(-c3c(F)cc(S(N)(=O)=O)cc3F)nc3cc(Cl)c(F)cn23)C1 [Compound 183, methyl (S)-2-((7-chloro-2-(2,6-difluoro-4-sulfamoylphenyl)-6-fluoroimidazo[1,2-a]pyridin-3-yl)methyl)morpholine-4-carboxylate] | 5.5
– | COC(=O)N1CCO[C@@H](Cc2c(-c3c(F)cc(N4CCCC4=O)cc3F)nc3cc(C)ccn23)C1 [Compound 101] | 10 to 50
– | COC(=O)N1CCO[C@@H](Cc2c(-c3c(F)cc(-n4cc[nH]c4=O)cc3F)nc3cc(C)ccn23)C1 [Compound 98] | 10 to 50
– | COC(=O)N1CCO[C@@H](Cc2c(-c3c(F)cc(NC(=O)c4ccccc4)cc3F)nc3cc(C)ccn23)C1 [Compound 84] | 50 to 200
– | COC(=O)N1CCO[C@@H](Cc2c(-c3c(F)cc(NC(=O)CC(C)C(=O)O)cc3F)nc3cc(C)ccn23)C1 (stereo partly drawn) [Compound 92] | 10 to 50
– | COC(=O)N1CCO[C@@H](Cc2c(-c3c(F)cc(NC(=O)CCC(C)(C)O)cc3F)nc3cc(C)ccn23)C1 [Compound 93] | 10 to 50
200 to 5000 | CNC(=O)c1cc(F)c(-c2nc3cc(C)ccn3c2C[C@H]2CN(C(=O)OC)CCN2)c(F)c1 [Compound 46] | –
– | CNC(=O)C1(c2cc(F)c(-c3nc4cc(C)ccn4c3C[C@H]3CN(C(=O)OC)CCO3)c(F)c2)CC1 [Compound 66] | 50 to 200
– | COC(=O)N1CCO[C@@H](Cc2c(-c3c(F)cc(C4(C(N)=O)CC4)cc3F)nc3cc(C)ccn23)C1 [Compound 65] | 50 to 200
– | COC(=O)N1CCO[C@@H](Cc2c(-c3c(F)cc(-n4ccc(C(=O)O)n4)cc3F)nc3cc(C)ccn23)C1 [Compound 125, (S)-1-(3,5-difluoro-4-(3-((4-(methoxycarbonyl)morpholin-2-yl)methyl)-7-methylimidazo[1,2-a]pyridin-2-yl)phenyl)-1H-pyrazole-3-carboxylic acid] | < 10
– | COC(=O)N1CCO[C@@H](Cc2c(-c3c(F)cc(N4C(=O)C=CC4=O)cc3F)nc3cc(C)ccn23)C1 [Compound 28, methyl (S)-2-((2-(2,6-difluoro-4-(2,5-dioxo-2,5-dihydropyrrol-1-yl)phenyl)-7-methylimidazo[1,2-a]pyridin-3-yl)methyl)morpholine-4-carboxylate] | 10 to 50
– | COC(=O)N1CCO[C@@H](Cc2c(-c3c(F)cc(NC(=O)c4ccncc4)cc3F)nc3cc(C)ccn23)C1 [Compound 86] | 10 to 50
200 to 5000 | CNC(=O)c1csc(-c2nc3cc(C)ccn3c2C[C@H]2CN(C(=O)OC)CCO2)c1F [Compound 23] | –
200 to 5000 | COC(=O)N1CCO[C@@H](Cc2c(-c3c(F)cc(-c4nccn4C)cc3F)nc3cc(C)ccn23)C1 [Compound 9, methyl (S)-2-((2-(2,6-difluoro-4-(1-methyl-1H-imidazol-2-yl)phenyl)-7-methylimidazo[1,2-a]pyridin-3-yl)methyl)morpholine-4-carboxylate] | –
– | CCC(=O)N1CCO[C@@H](Cc2c(-c3c(F)cc(NC(C)=O)cc3F)nc3cc(C)ccn23)C1 [Compound 156] | < 10
– | COC(=O)N1CCO[C@@H](Cc2c(-c3c(F)cc(-c4cc[nH]n4)cc3F)nc3cc(F)ccn23)C1 [Compound 103] | 50 to 200

Compound | IC50 [1] [nM] | IC50 [nM]
COC(=O)N1CCO[C@@H](Cc2c(-c3c(F)cc(-n4nccc4C#N)cc3F)nc3cc(C)ccn23)C1 [Compound 124-2] | ≤ 10 | –
